The text below walks through data of patent US20240352145A1, “EFFICACY OF ANTI-TROP-2-SN-38 ANTIBODY DRUG CONJUGATES FOR THERAPY OF TUMORS RELAPSED/REFRACTORY TO CHECKPOINT INHIBITORS” (Immunomedics, Inc., priority 2016, published 2024).

In assay [1] the test system is p21^Waf1/Cip1 and p53. Put plainly: Signaling events (p21Waf1/Cip1, p53) in BxPC-3. Type of assay: cell-based, human.
Text: (§4) Our initial studies examined the expression of 2 proteins involved in early signaling events (p21^Waf1/Cip1 and p53) and 1 late apoptotic event [cleavage of poly-ADP-ribose polymerase (PARP)] in vitro (not shown).
The test system of assay [2] is p21^Waf1/Cip1 and p53. Put plainly: Signaling events (p21Waf1/Cip1, p53) in Calu-3. It counts as cell-based, human.
Text: as §4
Assay [3] concerns Capan-1. Put plainly: Cytotoxicity (MTS), Example 6, Capan-1. It counts as cell-based, human. To be noted: Capan-1, 96 h. The method, then:
(§1) One day prior to adding the ADCs, cells were harvested from tissue culture and plated into 96-well plates. […] Plates were incubated at 37° C. for 96 h. […] Growth inhibition was measured as a percent of growth relative to untreated cells using Microsoft Excel and Prism software (non-linear regression to generate sigmoidal dose response curves which yield IC50-values.

Assay [4] deals with BxPC-3. Put plainly: Cytotoxicity (MTS), Example 6, BxPC-3. It counts as cell-based, human. To be noted: BxPC-3, 96 h. Here is the method:
as §1

In the next assay the test system is NCI-N87. Put plainly: Cytotoxicity (MTS), Example 6, NCI-N87. It counts as cell-based, human. To be noted: NCI-N87, 96 h. The method, then:
as §1

Assay [5] deals with BxPC-3. Put plainly: Cytotoxicity (MTS), Example 7, BxPC-3. It counts as cell-based, human. To be noted: BxPC-3, 96 h. The method, then: (§2) One day prior to adding the ADC, cells were harvested from tissue culture and plated into 96-well plates at 2000 cells per well. […] Plates were incubated at 37° C. for 96 h. […] Growth inhibition was measured as a percent of growth relative to untreated cells using Microsoft Excel and Prism software (non-linear regression to generate sigmoidal dose response curves which yield IC50-values).

In assay [6] the test system is MDA-MB-468. Put plainly: Cytotoxicity (MTS), Example 7, MDA-MB-468. To be noted: MDA-MB-468, 96 h. Type of assay: cell-based, human. The method, then:
as §2

In the next assay the test system is SK-BR-3. Put plainly: SN-38 sensitivity (MTS), SK-BR-3. It counts as cell-based, human. Particulars: SK-BR-3 (HER2+), 96 h. Here is the method:
(§3) In vitro cytotoxicity testing—Sensitivity to SN-38 was determined using the 3-(4,5-dimethylthiazol-2-yl)-5-(3-carboxymethoxyphenyl)-2-(4-sulfophenyl)-2H-tetrazolium dye reduction assay (MTS dye reduction assay; Promega, Madison, WI). Briefly, cells were plated into 96-well clear, flat-bottomed plates as described above. SN-38 dissolved in DMSO was diluted with media to a final concentration of 0.004 to 250 nM. […] Growth inhibition was measured as a percent of growth relative to untreated cells. Dose-response curves were generated from the mean of triplicate determinations, and IC50-values were calculated using Prism GraphPad Software.

In assay [7] the test system is MDA-MB-468. Put plainly: SN-38 sensitivity (MTS), MDA-MB-468. Type of assay: cell-based, human. To be noted: MDA-MB-468 (TNBC), 96 h. The method, then:
as §3

A further assay relates to HCC38. Put plainly: SN-38 sensitivity (MTS), HCC38. Type of assay: cell-based, human. To be noted: HCC38 (TNBC), 96 h. The method, then:
as §3

Another assay relates to MCF-7. Put plainly: SN-38 sensitivity (MTS), MCF-7. It counts as cell-based, human. To be noted: MCF-7 (ER+), 96 h. The method, then: as §3
The test system of another assay is HCC1806. Put plainly: SN-38 sensitivity (MTS), HCC1806. To be noted: HCC1806 (TNBC), 96 h. Type of assay: cell-based, human. The method, then: as §3
The test system of a further assay is MDA-MB-231. Put plainly: SN-38 sensitivity (MTS), MDA-MB-231. Particulars: MDA-MB-231 (TNBC), 96 h. Type of assay: cell-based, human. The method, then:
as §3

Another assay relates to p21^WAF1/Cip1. Put plainly: Immunoblotting, apoptotic pathway, MDA-MB-468. Type of assay: cell-based, human. To be noted: MDA-MB-468, by 48 h. Here is the method: Immunoblotting—Cells (2×10^6) were plated in 6-well plates overnight. […] Parental hRS7 was used as a control for the ADC.
In general terms: Immunoblotting shows a protein as a band on a membrane.

The next assay relates to PARP. Put plainly: Immunoblotting, apoptosis signaling, NCI-N87 and BxPC-3. Particulars: evident at 24 h, increased at 48 h. It counts as cell-based, human. The method, then: Immunoblotting—Cells (2×10^6) were plated in 6-well plates overnight. […] Parental hRS7 was used as a control for the ADC. Cells were lysed in buffer containing 10 mM Tris, pH 7.4, 150 mM NaCl, protease inhibitors and phosphatase inhibitors (2 mM […], 10 mM NaF). A total of 20 μg protein was resolved in a 4-20% SDS polyacrylamide gel, transferred onto a nitrocellulose membrane and blocked by 5% non-fat milk in 1×TBS-T (Tris-buffered saline, 0.1% Tween-20) for 1 h at room temperature. Membranes were probed overnight at 4° C. with primary antibodies followed by 1-h incubation with antirabbit secondary antibody (1:2500) at room temperature. Signal detection was done using a chemiluminescence kit (Supersignal West Dura, Thermo Scientific; Rockford, IL) with the membranes visualized on a Kodak Image Station […]. Primary antibodies p21Waf1/Cip1 (Cat. No. 2947), Caspase-3 (Cat. No. 9665), Caspase-7 (Cat. No. 9492), Caspase-9 (Cat. No. 9502), PARP (Cat. No. 9542), 3-actin (Cat. No. 4967), pJNK1/2 (Cat. No. 4668), JNK (Cat. No. 9258), and goat anti-rabbit-HRP secondary antibody (Cat. No. 7074) were obtained from Cell Signal Technology (Danvers, MA).

A further assay has as its system PC-3. Put plainly: In vitro cytotoxicity, PC-3.
In another assay the test system is Calu-3. Put plainly: In vitro cytotoxicity, Calu-3.
The subject of assay [8] is BxPC-3. Put plainly: In vitro cytotoxicity, BxPC-3.
Text: (§5) Cell lines, antibodies, and chemotherapeutics—All human cancer cell lines used in this study were purchased from the American Type Culture Collection.
The test system of assay [9] is Capan-1. Put plainly: In vitro cytotoxicity, Capan-1.
Text: as §5
The subject of a further assay is COLO 205. Put plainly: In vitro cytotoxicity, COLO 205.
The test system of another assay is SK-MES-1. Put plainly: In vitro cytotoxicity, SK-MES-1.

Text for COLO 205: as §5
Text for SK-MES-1: as §5

As for `CCc1c2c(nc3ccc(O)cc13)-c1cc3c(c(=O)n1C2)COC(=O)[C@]3(O)CC` [SN-38, 7-ethyl-10-hydroxycamptothecin], the “exposure time at which p53 upregulation is evident” value with p21^Waf1/Cip1 and p53 [1] is 48 h; with p21^Waf1/Cip1 and p53 [2], 48 h. Also, in the assay with p21^Waf1/Cip1 and p53 [1], the “increase in p21Waf1/Cip1 expression” value came out at 20 fold. For the same molecule, the 50% inhibitory concentration (IC50) (as a rule, the concentration needed to halve the response being measured) in the assay on Capan-1 [3] stood at 1 nM; in the assay on BxPC-3 [4] it was 1 nM; with NCI-N87, 4.3 nM; in the assay with BxPC-3 [5], 1.6 nM; in the assay on MDA-MB-468 [6], 0.8 nM; in the assay with SK-BR-3 it was 2 nM. Further, the IC50 with MDA-MB-468 [7] is 2 nM; in the assay with HCC38 it was 2 nM; in the assay on MCF-7, 33 nM; in the assay with HCC1806 it was 1 nM; with MDA-MB-231, 6 nM; in the assay on PC-3, 1.86 nM. The IC50 came out at 7.19 nM with Calu-3; 1.44 nM with BxPC-3 [8]; 3.5 nM in the assay with Capan-1 [9]; 1.02 nM in the assay with COLO 205; 8.61 nM with SK-MES-1. Moreover, the “decrease of p21WAF1/Cip1” value in the assay with p21^WAF1/Cip1 worked out at 31%. In the assay with PARP, the PARP cleavage result is “mediated PARP cleavage”.
